Reference: ChEMBL document CHEMBL1201861, “Genomics of Drug Sensitity in Cancer screening data, Wellcome Trust Sanger Institute”

Assays:
Assay in all cases: cells
CW-2 = type: functional, cell-based, Homo sapiens; conditions: Homo sapiens, CW-2;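 further: growth inhibition of CW-2 cells, read out by a cell viability assay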
Description: SANGER: Inhibition of human CW-2 cell growth in a cell viability assay.

Calu-6 = type: functional, cell-based, Homo sapiens; conditions: Homo sapiens, Calu-6;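 further: growth of human Calu-6 cells, read out by a cell viability assay, IC50 marking inhibition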
Description: SANGER: Inhibition of human Calu-6 cell growth in a cell viability assay.

D-502MG = type: functional, cell-based, Homo sapiens; conditions: Homo sapiens, D-502MG
Description: SANGER: Inhibition of human D-502MG cell growth in a cell viability assay.

DSH1 = type: functional, cell-based; conditions: Homo sapiens;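 further: growth inhibition of human DSH1 cells, measured with a cell viability readout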
Description: SANGER: Inhibition of human DSH1 cell growth in a cell viability assay.

EKVX = type: functional, cell-based, Homo sapiens; conditions: Homo sapiens, EKVX;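 further: growth inhibition of human EKVX cells, read out with a cell viability assay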
Description: SANGER: Inhibition of human EKVX cell growth in a cell viability assay.

EW-1 = type: functional, cell-based, Homo sapiens; conditions: Homo sapiens, EW-1;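 further: growth inhibition of the human EW-1 cell line, read out by a cell viability assay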
Description: SANGER: Inhibition of human EW-1 cell growth in a cell viability assay.

GCIY = type: functional, cell-based, Homo sapiens; conditions: Homo sapiens, GCIY;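 further: growth inhibition of the human GCIY cell line, read out by a cell viability assay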
Description: SANGER: Inhibition of human GCIY cell growth in a cell viability assay.

GOTO = type: functional, cell-based, Homo sapiens; conditions: Homo sapiens, GOTO;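 further: growth inhibition of GOTO cells, read out by a cell viability assay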
Description: SANGER: Inhibition of human GOTO cell growth in a cell viability assay.

GT3TKB = type: functional, cell-based, Homo sapiens; conditions: Homo sapiens, GT3TKB;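 further: growth inhibition of the cell line, read out with a cell viability assay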
Description: SANGER: Inhibition of human GT3TKB cell growth in a cell viability assay.

HCE-4 = type: functional, cell-based; conditions: Homo sapiens;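 further: cell viability assay measuring inhibition of growth in the human HCE-4 cell line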
Description: SANGER: Inhibition of human HCE-4 cell growth in a cell viability assay.

HD-MY-Z = type: functional, cell-based, Homo sapiens; conditions: Homo sapiens, HD-MY-Z;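 further: growth inhibition of HD-MY-Z cells, read out with a cell viability assay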
Description: SANGER: Inhibition of human HD-MY-Z cell growth in a cell viability assay.

HL-60 = type: functional, cell-based, Homo sapiens; conditions: Homo sapiens, HL-60;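 further: growth inhibition of human HL-60 cells, read out with a cell viability assay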
Description: SANGER: Inhibition of human HL-60 cell growth in a cell viability assay.

HOP-62 = type: functional, cell-based, Homo sapiens; conditions: Homo sapiens, HOP-62;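 further: cell growth inhibition determined with a viability assay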
Description: SANGER: Inhibition of human HOP-62 cell growth in a cell viability assay.

HT-144 = type: functional, cell-based, Homo sapiens; conditions: Homo sapiens, HT-144
Description: SANGER: Inhibition of human HT-144 cell growth in a cell viability assay.

KARPAS-299 = type: functional, cell-based, Homo sapiens; conditions: Homo sapiens, KARPAS-299
Description: SANGER: Inhibition of human KARPAS-299 cell growth in a cell viability assay.

KINGS-1 = type: functional, cell-based, Homo sapiens; conditions: Homo sapiens, KINGS-1;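 further: cell viability assay measuring suppression of KINGS-1 cell growth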
Description: SANGER: Inhibition of human KINGS-1 cell growth in a cell viability assay.

KM-H2 = type: functional, cell-based, Homo sapiens; conditions: Homo sapiens, KM-H2;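 further: growth inhibition of KM-H2 cells, read out by a cell viability assay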
Description: SANGER: Inhibition of human KM-H2 cell growth in a cell viability assay.

KS-1 = type: functional, cell-based; conditions: Homo sapiens;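 further: growth inhibition of KS-1 cells, read out with a cell viability assay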
Description: SANGER: Inhibition of human KS-1 cell growth in a cell viability assay.

KURAMOCHI = type: functional, cell-based, Homo sapiens; conditions: Homo sapiens, KURAMOCHI;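 further: growth inhibition of KURAMOCHI cells, read out with a cell viability assay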
Description: SANGER: Inhibition of human KURAMOCHI cell growth in a cell viability assay.

LB2241-RCC = type: functional, cell-based, Homo sapiens; conditions: Homo sapiens, LB2241-RCC;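 further: cell viability assay measuring how strongly the cultured human renal carcinoma line is prevented from growing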
Description: SANGER: Inhibition of human LB2241-RCC cell growth in a cell viability assay.

LB2518-MEL = type: functional, cell-based; conditions: Homo sapiens;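 further: growth inhibition of human LB2518-MEL cells, measured with a cell viability assay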
Description: SANGER: Inhibition of human LB2518-MEL cell growth in a cell viability assay.

LB996-RCC = type: functional, cell-based, Homo sapiens; conditions: Homo sapiens, LB996-RCC
Description: SANGER: Inhibition of human LB996-RCC cell growth in a cell viability assay.

LNCaP-Clone-FGC = type: functional, cell-based, Homo sapiens; conditions: Homo sapiens, LNCaP-Clone-FGC
Description: SANGER: Inhibition of human LNCaP-Clone-FGC cell growth in a cell viability assay.

MHH-PREB-1 = type: functional, cell-based, Homo sapiens; conditions: Homo sapiens, MHH-PREB-1;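 further: cell viability assay measuring inhibition of proliferation of human MHH-PREB-1 cells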
Description: SANGER: Inhibition of human MHH-PREB-1 cell growth in a cell viability assay.

MLMA = type: functional, cell-based, Homo sapiens; conditions: Homo sapiens, MLMA;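 further: growth inhibition of MLMA cells (human), determined through a cell viability readout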
Description: SANGER: Inhibition of human MLMA cell growth in a cell viability assay.

MN-60 = type: functional, cell-based, Homo sapiens; conditions: Homo sapiens, MN-60;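 further: growth inhibition of the MN-60 cell line, determined with a cell viability assay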
Description: SANGER: Inhibition of human MN-60 cell growth in a cell viability assay.

NB13 = type: functional, cell-based, Homo sapiens; conditions: Homo sapiens, NB13;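 further: cell viability readout measuring growth inhibition of human NB13 cells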
Description: SANGER: Inhibition of human NB13 cell growth in a cell viability assay.

NCI-H1304 = type: functional, cell-based, Homo sapiens; conditions: Homo sapiens, NCI-H1304;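 further: growth inhibition of the cancer cell line, measured in a cell viability assay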
Description: SANGER: Inhibition of human NCI-H1304 cell growth in a cell viability assay.

NCI-H1581 = type: functional, cell-based, Homo sapiens; conditions: Homo sapiens, NCI-H1581;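 further: cell growth inhibition read out by a viability assay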
Description: SANGER: Inhibition of human NCI-H1581 cell growth in a cell viability assay.

NCI-H1838 = type: functional, cell-based, Homo sapiens; conditions: Homo sapiens, NCI-H1838;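 further: growth inhibition of NCI-H1838 cells, determined with a cell viability readout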
Description: SANGER: Inhibition of human NCI-H1838 cell growth in a cell viability assay.

NCI-H2126 = type: functional, cell-based, Homo sapiens; conditions: Homo sapiens, NCI-H2126;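 further: growth inhibition of the cancer cell line, determined with a cell viability readout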
Description: SANGER: Inhibition of human NCI-H2126 cell growth in a cell viability assay.

NCI-H446 = type: functional, cell-based, Homo sapiens; conditions: Homo sapiens, NCI-H446;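 further: growth inhibition of NCI-H446 cells determined by a cell viability assay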
Description: SANGER: Inhibition of human NCI-H446 cell growth in a cell viability assay.

NCI-H747 = type: functional, cell-based, Homo sapiens; conditions: Homo sapiens, NCI-H747;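 further: growth inhibition of human NCI-H747 cells, read out by a cell viability assay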
Description: SANGER: Inhibition of human NCI-H747 cell growth in a cell viability assay.

NKM-1 = type: functional, cell-based, Homo sapiens; conditions: Homo sapiens, NKM-1;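 further: growth inhibition of NKM-1 cells, read out with a cell viability assay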
Description: SANGER: Inhibition of human NKM-1 cell growth in a cell viability assay.

NMC-G1 = type: functional, cell-based, Homo sapiens; conditions: Homo sapiens, NMC-G1;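 further: growth inhibition of the NMC-G1 cell line, measured with a cell viability read-out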
Description: SANGER: Inhibition of human NMC-G1 cell growth in a cell viability assay.

NOMO-1 = type: functional, cell-based, Homo sapiens; conditions: Homo sapiens, NOMO-1;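 further: growth inhibition of human NOMO-1 cells measured by a cell viability assay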
Description: SANGER: Inhibition of human NOMO-1 cell growth in a cell viability assay.

OMC-1 = type: functional, cell-based, Homo sapiens; conditions: Homo sapiens, OMC-1;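 further: growth inhibition of the OMC-1 cell line, measured by a cell viability assay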
Description: SANGER: Inhibition of human OMC-1 cell growth in a cell viability assay.

OS-RC-2 = type: functional, cell-based, Homo sapiens; conditions: Homo sapiens, OS-RC-2;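 further: growth inhibition of human OS-RC-2 cells, measured by a cell viability assay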
Description: SANGER: Inhibition of human OS-RC-2 cell growth in a cell viability assay.

RPMI-8226 = type: functional, cell-based, Homo sapiens; conditions: Homo sapiens, RPMI-8226
Description: SANGER: Inhibition of human RPMI-8226 cell growth in a cell viability assay.

SK-LMS-1 = type: functional, cell-based, Homo sapiens; conditions: Homo sapiens, SK-LMS-1;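 further: growth inhibition of human SK-LMS-1 cells, read out with a cell viability assay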
Description: SANGER: Inhibition of human SK-LMS-1 cell growth in a cell viability assay.

SK-UT-1 = type: functional, cell-based, Homo sapiens; conditions: Homo sapiens, SK-UT-1;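 further: growth inhibition of SK-UT-1 cells, measured by a cell viability assay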
Description: SANGER: Inhibition of human SK-UT-1 cell growth in a cell viability assay.

SW982 = type: functional, cell-based; conditions: Homo sapiens;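 further: growth inhibition of SW982 cells, read out with a cell viability assay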
Description: SANGER: Inhibition of human SW982 cell growth in a cell viability assay.

TE-1 = type: functional, cell-based, Homo sapiens; conditions: Homo sapiens, TE-1;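 further: growth inhibition of the human TE-1 cell line, read out with a cell viability assay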
Description: SANGER: Inhibition of human TE-1 cell growth in a cell viability assay.

A253 cell line = type: functional, cell-based, Homo sapiens; conditions: Homo sapiens, A253;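 further: growth inhibition of A253 cells, read out with a cell viability assay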
Description: SANGER: Inhibition of human A253 cell growth in a cell viability assay.

A3-KAW = type: functional, cell-based, Homo sapiens; conditions: Homo sapiens, A3-KAW;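 further: growth inhibition of human A3-KAW cells, read out with a cell viability assay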
Description: SANGER: Inhibition of human A3-KAW cell growth in a cell viability assay.

ALL-PO = type: functional, cell-based, Homo sapiens; conditions: Homo sapiens, ALL-PO;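 further: growth inhibition of ALL-PO cells, read out by a cell viability assay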
Description: SANGER: Inhibition of human ALL-PO cell growth in a cell viability assay.

AM-38 = type: functional, cell-based, Homo sapiens; conditions: Homo sapiens, AM-38;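 further: growth inhibition of AM-38 cells of human origin, read out by a cell viability assay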
Description: SANGER: Inhibition of human AM-38 cell growth in a cell viability assay.

TE-6 = type: functional, cell-based, Homo sapiens; conditions: Homo sapiens, TE-6;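 further: growth inhibition of TE-6 cells, read out with a cell viability assay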
Description: SANGER: Inhibition of human TE-6 cell growth in a cell viability assay.

TGW = type: functional, cell-based, Homo sapiens; conditions: Homo sapiens, TGW;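 further: growth inhibition of human TGW cells, read out with a cell viability assay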
Description: SANGER: Inhibition of human TGW cell growth in a cell viability assay.

COLO-320-HSR = type: functional, cell-based, Homo sapiens; conditions: Homo sapiens, COLO-320-HSR;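 further: growth inhibition of COLO-320-HSR cells, determined with a cell viability assay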
Description: SANGER: Inhibition of human COLO-320-HSR cell growth in a cell viability assay.

With `Cc1ccc(C(=O)Nc2ccc(CN3CCN(C)CC3)c(C(F)(F)F)c2)cc1C#Cc1cnc2cccnn12` [PONATINIB] the IC50 (CW-2) was > 512 nM, the IC50 (Calu-6) was > 512 nM and the IC50 (D-502MG) was > 512 nM. The IC50 (DSH1) was > 512 nM, the IC50 (EKVX) was > 512 nM and the IC50 (EW-1) was > 512 nM. The IC50 (GCIY) was > 512 nM, the IC50 (GOTO) was > 512 nM and the IC50 (GT3TKB) was > 512 nM. The IC50 (HCE-4) was > 512 nM, the IC50 (HD-MY-Z) was > 512 nM and the IC50 (HL-60) was > 512 nM. The IC50 (HOP-62) was 361 nM, the IC50 (HT-144) was 313 nM and the IC50 (KARPAS-299) was > 512 nM. For the same compound, the IC50 (KINGS-1) was > 512 nM, the IC50 (KM-H2) was > 512 nM and the IC50 (KS-1) was > 512 nM. The IC50 (KURAMOCHI) was 284 nM, the IC50 (LB2241-RCC) was > 512 nM and the IC50 (LB2518-MEL) was > 512 nM. The IC50 (LB996-RCC) was > 512 nM, the IC50 (LNCaP-Clone-FGC) was > 512 nM and the IC50 (MHH-PREB-1) was > 512 nM. The IC50 (MLMA) was 90.6 nM, the IC50 (MN-60) was > 512 nM and the IC50 (NB13) was > 512 nM. The IC50 (NCI-H1304) was > 512 nM, the IC50 (NCI-H1581) was > 512 nM and the IC50 (NCI-H1838) was > 512 nM. For the same compound, the IC50 (NCI-H2126) was > 512 nM, the IC50 (NCI-H446) was > 512 nM and the IC50 (NCI-H747) was 421 nM. For the same compound, the IC50 (NKM-1) was 6.55 nM, the IC50 (NMC-G1) was > 512 nM and the IC50 (NOMO-1) was > 512 nM. For the same compound, the IC50 (OMC-1) was > 512 nM, the IC50 (OS-RC-2) was > 512 nM and the IC50 (RPMI-8226) was > 512 nM. For the same compound, the IC50 (SK-LMS-1) was > 512 nM, the IC50 (SK-UT-1) was > 512 nM and the IC50 (SW982) was 300 nM. The IC50 (TE-1) was > 512 nM, the IC50 (A253 cell line) was > 512 nM and the IC50 (A3-KAW) was > 512 nM. The IC50 (ALL-PO) was 124 nM, the IC50 (AM-38) was > 512 nM and the IC50 (TE-6) was > 512 nM. The IC50 (TGW) was > 512 nM and the IC50 (COLO-320-HSR) was > 512 nM.
